# Assay results reported in publication PMC6445163, “Design, synthesis, and evaluation of novel 2-phenylpropionic acid derivatives as dual COX inhibitory-antibacterial agents” (Journal of Enzyme Inhibition and Medicinal Chemistry, 2017).
# Key:
# [1] = test system: Escherichia coli (ATCC 35218); test: broth microdilution MIC (CLSI M07-A9), resazurin; assay type: cell-based; conditions: for MIC: ATCC35218, 24 h, read-out: MIC Ec-1
# Description: (§1) Microbiological studies were performed according to following guides: CLSI reference […]-A9 broth microdilution method[49] for bacterial strains and EUCAST definitive (EDef 7.1) method[50] for Candida species. Synthesized compounds were tested for their in vitro growth inhibitory activity against Staphylococcus aureus (ATCC 25923), Enterococcus faecalis (ATCC 29212), Listeria monocytogenes (ATCC 1911), Klebsiella pneumoniae (NCTC 9633), Escherichia coli (ATCC 35218), E. coli (ATCC 25922) Candida albicans (ATCC 24433) Candida krusei (ATCC 6258) and Candida parapsilosis (ATCC 22019). Chloramphenicol and ketoconazole were used as control drugs. The cultures were obtained from the Mueller-Hinton broth (Difco) for the bacterial strains after overnight incubation at 37 °C. The yeasts were maintained in Roswell Park Memorial Institute (RPMI) after overnight incubation at 37 °C. […] Testing was carried out in Mueller-Hinton broth and RPMI at pH =7, and the two-fold serial dilutions technique was applied. The last well on the microplates containing only inoculated broth was kept as controls and the last well with no growth of microorganism was recorded to represent the minimum inhibitory concentration (MIC) expressed in μg/mL. For both the antibacterial and antifungal assays, the compounds were dissolved in DMSO. […] The completed plates were incubated for 24 h. At the end of the incubation, resazurin (20 μg/mL) was added into each well and plates were incubated for 2 h. MIC values were determined using a microplate reader at […]. Synthesized compounds (6a-6m) were evaluated for antimicrobial activity against various microorganisms such as Staphylococcus aureus (ATCC 25923), Enterococcus faecalis (ATCC 29212), Listeria monocytogenes (ATCC 1911), Klebsiella pneumoniae (NCTC 9633), Escherichia coli (ATCC 35218), E. coli (ATCC 25922)Candida albicans (ATCC 24433) Candida krusei (ATCC 6258) and Candida parapsilosis (ATCC 22019). […] Chloramphenicol and ketoconazole were used as standard drugs in the activity test. […] Besides, the compounds 6d, 6h, 6l and 6m indicated stronger antibacterial activity than the other compounds in the series.
# [2] = test system: Enterococcus faecalis (ATCC 29212); test: broth microdilution MIC (CLSI M07-A9), resazurin; assay type: cell-based; conditions: ATCC29212, 24 h
# Description: as §1
# [3] = test system: Escherichia coli (ATCC 25922); test: broth microdilution MIC (CLSI M07-A9), resazurin; assay type: cell-based; conditions: ATCC25922, 24 h, read-out: MIC Ec-2
# Description: as §1
# [4] = test system: Klebsiella pneumoniae (NCTC 9633); test: broth microdilution MIC (CLSI M07-A9), resazurin; assay type: cell-based; conditions: 24 h
# Description: as §1
# [5] = test system: Listeria monocytogenes (ATCC 1911); test: broth microdilution MIC (CLSI M07-A9), resazurin; assay type: cell-based; conditions: ATCC1911, 24 h
# Description: as §1
# [6] = test system: Staphylococcus aureus (ATCC 25923); test: broth microdilution MIC (CLSI M07-A9), resazurin; assay type: cell-based; conditions: ATCC25923, 24 h
# Description: as §1
# [7] = molecular target: T1, COX-1 (Ovis aries, UniProt P05979); test: fluorometric COX-1 inhibitor screening kit assay; assay type: biochemical; conditions: for SI (selectivity index): IC50 (COX-1)/IC50 (COX-2); for IC50: fluorometric kit, 25 °C; for Selectivity: isoform preferred according to SI
# T1 construct: purchased Biovision K548-100
# T1 sequence (P05979 25-600): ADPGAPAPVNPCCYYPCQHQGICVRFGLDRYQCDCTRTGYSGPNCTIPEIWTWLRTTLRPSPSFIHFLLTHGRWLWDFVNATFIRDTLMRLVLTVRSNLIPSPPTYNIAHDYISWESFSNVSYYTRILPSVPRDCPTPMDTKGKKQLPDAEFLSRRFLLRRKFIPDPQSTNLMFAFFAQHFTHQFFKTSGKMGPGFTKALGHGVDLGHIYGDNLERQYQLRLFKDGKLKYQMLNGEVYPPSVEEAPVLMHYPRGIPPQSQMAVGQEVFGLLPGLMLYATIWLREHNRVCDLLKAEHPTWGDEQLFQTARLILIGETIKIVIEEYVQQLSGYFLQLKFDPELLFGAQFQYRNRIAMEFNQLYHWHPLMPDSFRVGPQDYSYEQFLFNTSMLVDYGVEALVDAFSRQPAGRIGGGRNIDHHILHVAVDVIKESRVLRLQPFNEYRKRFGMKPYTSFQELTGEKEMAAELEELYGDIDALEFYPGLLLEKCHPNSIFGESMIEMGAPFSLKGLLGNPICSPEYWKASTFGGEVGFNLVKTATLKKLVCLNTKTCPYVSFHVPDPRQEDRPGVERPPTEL
# Description: (§2) Inhibitory potency of the compounds against COX-1 and COX-2 enzymes was determined using fluorometric COX-1 and COX-2 inhibitor screening kits (Biovision, Zurich, Switzerland). Experimental protocol was followed as described in the guides of the supplier[47]^,[48]. All of the pipettings in the assay were performed by Biotek Precision robotic system (BioTek Instruments, Inc., Winooski, VT). […] Appropriate two points (T1 and T2) in the linear range of the plot were chosen, and the corresponding fluorescence values (RFU1 and RFU2) were obtained. The slope for all samples, including enzyme control (EC), by dividing the net ΔRFU (RFU2–RFU1) values by the time ΔT (T2–T1) were calculated by using following equation: % Relative inhibition=(Slope of EC-Slope of S/Slope of EC)×100
# (§3) This initial in vitro assay was done with two concentrations (10^−3 and 10^−4 M) for all compounds. […] The IC50 value was calculated from the plots of enzyme activity against concentrations by applying regression analyses on GraphPad Prism Version 5 (GraphPad Software, La Jolla, CA).
# (§4) Selectivity indexes (SI) were expressed as IC50 (COX-1)/IC50 (COX-2). Selectivity toward COX-2 decreases as the corresponding SI decreases while selectivity toward COX-1 isoform increases as the corresponding SI decreases.
# [8] = molecular target: T2, COX-2 (Homo sapiens, UniProt P35354); test: fluorometric COX-2 inhibitor screening kit assay; assay type: biochemical; conditions: 25 °C
# T2 construct: purchased Biovision K547-100
# T2 sequence (P35354 18-604): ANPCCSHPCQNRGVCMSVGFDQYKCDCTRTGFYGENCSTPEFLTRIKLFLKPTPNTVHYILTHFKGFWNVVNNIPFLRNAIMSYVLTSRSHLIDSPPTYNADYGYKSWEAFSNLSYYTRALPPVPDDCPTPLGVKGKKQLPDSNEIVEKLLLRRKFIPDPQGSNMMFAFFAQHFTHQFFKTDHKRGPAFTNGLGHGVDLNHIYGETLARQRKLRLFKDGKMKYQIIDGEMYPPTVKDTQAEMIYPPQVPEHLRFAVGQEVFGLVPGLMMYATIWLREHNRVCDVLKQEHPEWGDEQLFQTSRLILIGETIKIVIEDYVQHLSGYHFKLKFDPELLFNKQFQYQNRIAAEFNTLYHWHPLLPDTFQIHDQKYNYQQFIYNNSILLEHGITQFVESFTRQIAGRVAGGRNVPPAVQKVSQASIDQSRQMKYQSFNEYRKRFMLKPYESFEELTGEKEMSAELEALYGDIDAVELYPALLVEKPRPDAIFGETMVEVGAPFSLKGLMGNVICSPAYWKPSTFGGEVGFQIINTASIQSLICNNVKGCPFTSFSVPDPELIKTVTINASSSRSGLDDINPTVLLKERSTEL
# Description: as §2, §3, §4
# [9] = test system: Candida krusei (ATCC 6258); test: broth dilution MIC (EUCAST EDef 7.1), resazurin; assay type: cell-based; conditions: Pichia kudriavzevii, ATCC6258, 24 h
# Description: as §1
# [10] = test system: Candida albicans (ATCC 24433); test: broth dilution MIC (EUCAST EDef 7.1), resazurin; assay type: cell-based; conditions: ATCC24433, 24 h
# Description: as §1
# [11] = test system: Candida parapsilosis (ATCC 22019); test: broth dilution MIC (EUCAST EDef 7.1), resazurin; assay type: cell-based; conditions: ATCC22019, 24 h
# Description: as §1
SMILES,MIC Ec-1 ([1]; 24 h) [µg/mL],MIC [1] [µg/mL],MIC [2] [µg/mL],MIC [3] [µg/mL],MIC Kp [4] [µg/mL],MIC [5] [µg/mL],MIC [6] [µg/mL],SI (selectivity index) [7],IC50 [7] [µM],Selectivity [7],IC50 [8] [µM],MIC [9] [µg/mL],MIC [10] [µg/mL],MIC [11] [µg/mL],melting point [°C]
"O=C(N[C@H](CO)[C@H](O)c1ccc([N+](=O)[O-])cc1)C(Cl)Cl [Chloramphenicol, reference compound]",6.25,6.25,6.25,6.25,12.5,12.5,6.25,,,,,,,,
"Cc1ccc(C(C)C(=O)O)cc1 (stereo not drawn) [Compound 4, 2-(4-methylphenyl) propionic acid]",,25,50,50,50,50,50,0.59,38.2,COX-1,64.3,50,100,50,

# Further lines, results first:
MIC Ec-1 ([1]; 24 h) [µg/mL],MIC [1] [µg/mL],MIC [2] [µg/mL],MIC [3] [µg/mL],MIC Kp [4] [µg/mL],MIC [5] [µg/mL],MIC [6] [µg/mL],SI (selectivity index) [7],IC50 [7] [µM],Selectivity [7],IC50 [8] [µM],MIC [9] [µg/mL],MIC [10] [µg/mL],MIC [11] [µg/mL],melting point [°C],SMILES
,6.25,12.5,12.5,6.25,12.5,12.5,0.59,22.2,COX-1,37.8,100,100,100,154.2 to 156.3,"CC(C(=O)O)c1ccc(CSC2=NCCS2)cc1 (stereo not drawn) [Compound 6a, 2-(4-(((4,5-Dihydrothiazol-2-yl)thio)methyl)phenyl)propanoic acid]"
,6.25,12.5,12.5,6.25,12.5,12.5,0.60,28.6,COX-1,47.4,100,100,50,,"CC(C(=O)O)c1ccc(CSc2nccn2C)cc1 (stereo not drawn) [Compound 6b, 2-(4-(((1-Methyl-1H-imidazol-2-yl)thio)methyl)phenyl)propanoic acid]"
,6.25,12.5,12.5,12.5,12.5,12.5,0.53,19.5,COX-1,36.7,50,100,50,,"CC(C(=O)O)c1ccc(CSc2nc[nH]n2)cc1 (stereo not drawn) [Compound 6c, 2-(4-(((1H-1,2,4-Triazol-3-yl)thio)methyl)phenyl)propanoic acid]"
